This passage reports IC50 results from ChEMBL document CHEMBL5625259, “Direct-to-biology platform: From synthesis to biological evaluation of SHP2 allosteric inhibitors” (Bioorg Med Chem Lett, 2024).

The assay deals with T1, Tyrosine-protein phosphatase non-receptor type 11 (Homo sapiens, UniProt Q06124).
T1 sequence (Q06124 whole entry): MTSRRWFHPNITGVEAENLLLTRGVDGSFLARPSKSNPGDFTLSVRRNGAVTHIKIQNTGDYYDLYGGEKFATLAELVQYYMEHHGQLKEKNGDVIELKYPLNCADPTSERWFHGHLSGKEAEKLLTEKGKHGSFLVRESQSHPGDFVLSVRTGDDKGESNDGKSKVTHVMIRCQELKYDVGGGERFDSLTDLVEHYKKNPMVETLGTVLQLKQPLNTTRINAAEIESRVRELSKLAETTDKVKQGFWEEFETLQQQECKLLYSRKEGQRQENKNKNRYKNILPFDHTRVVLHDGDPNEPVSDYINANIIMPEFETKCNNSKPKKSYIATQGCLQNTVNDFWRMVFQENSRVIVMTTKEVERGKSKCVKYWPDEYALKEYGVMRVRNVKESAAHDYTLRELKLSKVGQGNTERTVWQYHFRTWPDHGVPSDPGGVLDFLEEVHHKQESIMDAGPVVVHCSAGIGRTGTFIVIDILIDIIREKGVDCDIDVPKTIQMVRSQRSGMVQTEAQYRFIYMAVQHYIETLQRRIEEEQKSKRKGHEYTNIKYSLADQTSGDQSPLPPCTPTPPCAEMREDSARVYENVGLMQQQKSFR
Kind of assay: Allosteric inhibition of wild type SHP2 (unknown origin) assessed as dephosphorylation of DIFMUP by fluorescence based envision microplate reader analysis.

The structures appear in SMILES notation. A value given as a limit tells only on which side of the number the result lay.

Regarding `FC(F)(F)c1ncccc1Sc1cnc2[nH]c(N3CCCC4(CNCCO4)C3)nc2n1` (stereo unspecified), the IC50 (commonly the midpoint of a concentration-inhibition curve) was more than 3.2 µM.
